Read-outs that look alike come from different tables or passages of the source.
Assays:
[1] = tested on: avian influenza virus KBNP-0028 (KCTC 10866BP); assay type: cell-based, A/chicken/Korea/SNU0028/2000(H9N2)
[2] = tested on: CEF (chicken embryo fibroblasts)

Row | SMILES | antiviral activities (in words) [1] | Number of wells which hemagglutination occurs (among 6 wells) ([1]; 12.5 μg/mL) | Number of wells which hemagglutination occurs (among 6 wells) ([1]; 25 μg/mL) | Number of wells which hemagglutination occurs (among 6 wells) ([1]; 50 μg/mL) | Number of wells which hemagglutination occurs (among 6 wells) ([1]; 100 μg/mL) | Cytotoxicity, MTT assay reading ([2]; 6.25 μg/mL) | Cytotoxicity, MTT assay reading ([2]; 12.5 μg/mL) | Cytotoxicity, MTT assay reading ([2]; 25 μg/mL) | Cytotoxicity, MTT assay reading ([2]; 50 μg/mL) | Cytotoxicity, MTT assay reading ([2]; 100 μg/mL) | Cytotoxicity, MTT assay reading ([2]; 200 μg/mL)
1 | O=C(/C=C/CCc1ccc(O)cc1)CCc1ccc(O)c(O)c1 [12B-AJ-7A-1, 1-(3′,4′-dihydroxyphenyl)-7-(4″-hydroxyphenyl)-4(E)-hepten-3-one] | excellent antiviral activities | 3 | 3 | 2 | 0 | 0.424 | 0.418 | 0.347 | 0.478 | 0.411 | 0.531
2 | O=C(/C=C/CCc1ccc(O)c(O)c1)CCc1ccc(O)c(O)c1 [12B-AJ-7B, 1,7-bis(3,4-dihydroxyphenyl)-4(E)-hepten-3-one] |  | 3 | 3 | 3 | 3 | 0.413 | 0.364 | 0.345 | 0.399 | 0.427 | 0.560
3 | O=C(CCc1ccc(O)c(O)c1)CC(CCc1ccc(O)cc1)O[C@@H]1OC[C@@H](O)[C@H](O)[C@H]1O (stereo partly drawn) [12B-AJ-11B-1, 1-(3,4-dihydroxyphenyl)-7-(4-hydroxyphenyl)-3-heptanone-5-o-β-D-xylopyranose] | excellent antiviral activities | 3 | 3 | 3 | 1 | 0.535 | 0.399 | 0.483 | 0.487 | 0.316 | 0.363
4 | O=C(CCc1ccc(O)cc1)C[C@H](CCc1ccc(O)cc1)O[C@@H]1OC[C@@H](O)[C@H](O)[C@H]1O [12B-AJ-16A, (5S)1,7-bis(4-hydroxyphenyl)-5-o-β-D-xylopyranoside-heptane-3-one] |  | 3 | 3 | 1 | 0 | 0.441 | 0.427 | 0.432 | 0.451 | 0.302 | 0.309
